Laboratory results taken from ChEMBL document CHEMBL5715954, “Silencing c-Myc translation as a therapeutic strategy through targeting PI3Kδ and CK1ε in hematological malignancies” (Blood, 2017).

Legend:
Parameters in all cases: scale not given: the % may be the effect or the level left
[1] = target: Serine/threonine-protein kinase pim-2 (Homo sapiens) (UniProt Q9P1W9); assay: Inhibition of human PIM2 assessed as enzyme activity at 1 uM using RSRHSSYPAGT as substrate preincubated for 20 mins followed by [gamma-33P]-ATP addition and measured after 120 mins by radiometric Hot-SpotSM Kinase assay relative to control
Chain of Serine/threonine-protein kinase pim-2 (Homo sapiens) (Q9P1W9 whole entry, looked up): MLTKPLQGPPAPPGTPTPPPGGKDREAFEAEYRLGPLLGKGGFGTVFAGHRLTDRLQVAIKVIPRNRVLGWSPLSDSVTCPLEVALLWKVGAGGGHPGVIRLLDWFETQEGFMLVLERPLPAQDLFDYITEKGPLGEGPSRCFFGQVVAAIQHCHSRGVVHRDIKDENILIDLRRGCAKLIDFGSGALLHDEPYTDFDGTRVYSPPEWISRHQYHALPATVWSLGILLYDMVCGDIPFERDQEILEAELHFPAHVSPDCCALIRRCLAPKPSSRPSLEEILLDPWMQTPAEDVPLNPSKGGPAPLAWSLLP

[2] = target: Mitogen-activated protein kinase 7 (Homo sapiens) (UniProt Q13164); assay: Inhibition of human ERK5 assessed as enzyme activity at 1 uM using myelin basic protein as substrate preincubated for 20 mins followed by [gamma-33P]-ATP addition and measured after 120 mins by radiometric Hot-SpotSM Kinase assay relative to control
Chain of Mitogen-activated protein kinase 7 (Homo sapiens) (Q13164 2-816 limits assumed): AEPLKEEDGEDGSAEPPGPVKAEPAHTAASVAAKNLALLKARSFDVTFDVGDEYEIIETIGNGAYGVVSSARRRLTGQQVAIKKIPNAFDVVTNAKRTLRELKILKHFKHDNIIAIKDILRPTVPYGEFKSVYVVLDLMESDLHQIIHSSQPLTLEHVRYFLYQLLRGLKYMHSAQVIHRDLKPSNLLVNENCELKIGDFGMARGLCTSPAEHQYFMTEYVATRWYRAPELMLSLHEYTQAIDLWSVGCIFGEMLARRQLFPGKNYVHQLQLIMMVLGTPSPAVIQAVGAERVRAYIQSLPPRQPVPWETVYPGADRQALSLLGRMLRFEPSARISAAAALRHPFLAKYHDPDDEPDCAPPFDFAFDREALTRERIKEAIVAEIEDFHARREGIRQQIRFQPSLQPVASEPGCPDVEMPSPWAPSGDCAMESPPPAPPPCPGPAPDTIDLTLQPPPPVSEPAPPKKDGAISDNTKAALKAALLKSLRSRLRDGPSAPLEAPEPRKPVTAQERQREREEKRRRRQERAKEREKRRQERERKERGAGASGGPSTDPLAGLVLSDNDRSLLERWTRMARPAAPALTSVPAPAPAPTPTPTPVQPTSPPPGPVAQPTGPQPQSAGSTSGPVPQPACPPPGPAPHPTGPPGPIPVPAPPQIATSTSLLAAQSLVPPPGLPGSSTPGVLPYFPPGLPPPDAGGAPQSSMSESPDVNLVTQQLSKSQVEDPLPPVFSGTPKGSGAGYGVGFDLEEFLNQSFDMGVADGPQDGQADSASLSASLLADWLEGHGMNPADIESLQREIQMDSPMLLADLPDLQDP

[3] = target: T1, Serine/threonine-protein kinase Sgk1 (Homo sapiens) (UniProt O00141); assay: Inhibition of human SGK1 assessed as enzyme activity at 1 uM using KGSGSGRPRTSSFAEG as substrate preincubated for 20 mins followed by [gamma-33P]-ATP addition and measured after 120 mins by radiometric Hot-SpotSM Kinase assay relative to control
T1 sequence (whole entry): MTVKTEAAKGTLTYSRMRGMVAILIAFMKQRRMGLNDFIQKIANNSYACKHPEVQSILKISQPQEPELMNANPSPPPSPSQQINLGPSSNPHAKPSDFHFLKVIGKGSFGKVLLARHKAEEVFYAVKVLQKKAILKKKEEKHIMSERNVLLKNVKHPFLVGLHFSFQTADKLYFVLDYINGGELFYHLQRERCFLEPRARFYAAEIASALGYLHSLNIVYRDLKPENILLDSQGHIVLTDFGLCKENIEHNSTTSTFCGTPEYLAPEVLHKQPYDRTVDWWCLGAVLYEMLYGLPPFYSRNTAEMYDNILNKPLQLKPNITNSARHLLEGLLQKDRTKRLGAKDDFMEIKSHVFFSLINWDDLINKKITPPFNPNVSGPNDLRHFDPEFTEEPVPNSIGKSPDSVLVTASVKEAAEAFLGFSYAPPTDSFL

[4] = target: CDK17/Cyclin-Y (Homo sapiens) (UniProt Q00537+Q8ND76); assay: Inhibition of human CDK17/cyclin Y assessed as enzyme activity at 1 uM using myelin basic protein as substrate preincubated for 20 mins followed by [gamma-33P]-ATP addition and measured after 120 mins by radiometric Hot-SpotSM Kinase assay relative to control; type: protein-complex assay
Chain of CDK17/Cyclin-Y (Homo sapiens) (Q00537 whole entry): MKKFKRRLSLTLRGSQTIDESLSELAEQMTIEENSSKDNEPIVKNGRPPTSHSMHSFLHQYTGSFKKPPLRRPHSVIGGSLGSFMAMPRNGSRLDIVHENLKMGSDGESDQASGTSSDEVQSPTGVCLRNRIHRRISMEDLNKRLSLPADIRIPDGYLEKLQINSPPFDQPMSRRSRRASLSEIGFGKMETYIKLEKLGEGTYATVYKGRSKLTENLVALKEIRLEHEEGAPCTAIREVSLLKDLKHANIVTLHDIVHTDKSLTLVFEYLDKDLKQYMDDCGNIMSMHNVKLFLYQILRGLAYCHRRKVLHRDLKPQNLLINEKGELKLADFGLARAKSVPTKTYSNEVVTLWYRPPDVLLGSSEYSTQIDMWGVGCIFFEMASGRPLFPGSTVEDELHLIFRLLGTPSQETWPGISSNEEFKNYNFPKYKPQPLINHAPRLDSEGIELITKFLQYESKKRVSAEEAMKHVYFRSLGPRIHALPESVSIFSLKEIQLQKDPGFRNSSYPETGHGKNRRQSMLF
Chain of CDK17/Cyclin-Y (Homo sapiens) (Q8ND76 2-341 partner limits assumed): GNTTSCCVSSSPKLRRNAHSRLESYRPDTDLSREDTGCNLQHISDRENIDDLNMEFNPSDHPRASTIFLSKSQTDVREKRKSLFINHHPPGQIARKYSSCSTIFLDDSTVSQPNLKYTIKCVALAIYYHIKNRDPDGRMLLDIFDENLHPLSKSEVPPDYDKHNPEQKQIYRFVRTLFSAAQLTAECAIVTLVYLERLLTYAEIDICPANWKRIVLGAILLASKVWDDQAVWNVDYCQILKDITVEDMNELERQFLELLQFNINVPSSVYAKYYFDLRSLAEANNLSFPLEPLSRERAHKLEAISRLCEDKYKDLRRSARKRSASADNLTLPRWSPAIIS

[5] = target: T2, Serine/threonine-protein kinase Nek1 (Homo sapiens) (UniProt Q96PY6); assay: Inhibition of human NEK1 assessed as enzyme activity at 1 uM using myelin basic protein as substrate preincubated for 20 mins followed by [gamma-33P]-ATP addition and measured after 120 mins by radiometric Hot-SpotSM Kinase assay relative to control
T2 sequence (whole entry): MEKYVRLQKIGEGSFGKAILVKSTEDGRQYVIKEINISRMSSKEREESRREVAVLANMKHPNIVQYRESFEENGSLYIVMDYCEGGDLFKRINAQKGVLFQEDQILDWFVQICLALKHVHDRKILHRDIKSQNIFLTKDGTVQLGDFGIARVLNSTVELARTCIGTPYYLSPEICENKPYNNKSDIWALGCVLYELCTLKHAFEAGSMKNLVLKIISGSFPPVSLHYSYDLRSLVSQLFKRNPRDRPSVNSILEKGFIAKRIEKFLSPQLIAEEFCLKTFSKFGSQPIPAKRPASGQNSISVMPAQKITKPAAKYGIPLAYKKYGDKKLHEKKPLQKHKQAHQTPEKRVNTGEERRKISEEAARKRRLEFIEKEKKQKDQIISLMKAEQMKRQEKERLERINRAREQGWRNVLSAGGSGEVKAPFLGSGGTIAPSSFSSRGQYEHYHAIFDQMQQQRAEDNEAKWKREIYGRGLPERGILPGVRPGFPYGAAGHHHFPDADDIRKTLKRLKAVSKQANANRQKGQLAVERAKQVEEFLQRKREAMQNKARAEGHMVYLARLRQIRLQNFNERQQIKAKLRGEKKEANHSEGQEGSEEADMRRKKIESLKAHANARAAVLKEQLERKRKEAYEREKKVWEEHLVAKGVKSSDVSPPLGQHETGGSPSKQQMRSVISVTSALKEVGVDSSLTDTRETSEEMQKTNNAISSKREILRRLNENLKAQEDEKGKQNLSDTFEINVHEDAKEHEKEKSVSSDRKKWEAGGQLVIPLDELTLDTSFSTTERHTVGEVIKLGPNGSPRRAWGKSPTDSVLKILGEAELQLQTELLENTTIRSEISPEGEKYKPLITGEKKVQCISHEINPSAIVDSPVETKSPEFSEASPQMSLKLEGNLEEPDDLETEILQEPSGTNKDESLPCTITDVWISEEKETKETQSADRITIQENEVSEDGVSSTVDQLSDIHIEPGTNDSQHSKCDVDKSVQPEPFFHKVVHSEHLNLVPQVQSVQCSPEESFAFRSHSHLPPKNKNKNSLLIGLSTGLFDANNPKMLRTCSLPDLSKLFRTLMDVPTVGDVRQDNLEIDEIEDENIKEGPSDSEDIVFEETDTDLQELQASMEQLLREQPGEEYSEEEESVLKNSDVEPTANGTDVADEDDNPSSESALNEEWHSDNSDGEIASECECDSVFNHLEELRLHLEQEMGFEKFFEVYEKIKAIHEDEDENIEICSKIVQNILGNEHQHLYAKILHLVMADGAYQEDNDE

[6] = target: CDK1/Cyclin A (Homo sapiens) (UniProt P06493+P20248); assay: Inhibition of human CDK1/cyclin A assessed as enzyme activity at 1 uM using RB Protein as substrate preincubated for 20 mins followed by [gamma-33P]-ATP addition and measured after 120 mins by radiometric Hot-SpotSM Kinase assay relative to control; type: protein-complex assay
Chain of CDK1/Cyclin A (Homo sapiens) (P06493 whole entry, looked up): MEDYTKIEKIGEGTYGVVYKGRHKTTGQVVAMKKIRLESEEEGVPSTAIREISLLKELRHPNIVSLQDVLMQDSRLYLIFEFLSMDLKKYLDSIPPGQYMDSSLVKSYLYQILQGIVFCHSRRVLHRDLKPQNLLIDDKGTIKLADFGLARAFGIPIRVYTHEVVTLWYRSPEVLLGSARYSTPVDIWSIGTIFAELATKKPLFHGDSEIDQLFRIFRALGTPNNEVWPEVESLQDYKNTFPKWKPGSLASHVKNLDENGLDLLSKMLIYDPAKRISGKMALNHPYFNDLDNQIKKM
Chain of CDK1/Cyclin A (Homo sapiens) (P20248 whole entry, looked up): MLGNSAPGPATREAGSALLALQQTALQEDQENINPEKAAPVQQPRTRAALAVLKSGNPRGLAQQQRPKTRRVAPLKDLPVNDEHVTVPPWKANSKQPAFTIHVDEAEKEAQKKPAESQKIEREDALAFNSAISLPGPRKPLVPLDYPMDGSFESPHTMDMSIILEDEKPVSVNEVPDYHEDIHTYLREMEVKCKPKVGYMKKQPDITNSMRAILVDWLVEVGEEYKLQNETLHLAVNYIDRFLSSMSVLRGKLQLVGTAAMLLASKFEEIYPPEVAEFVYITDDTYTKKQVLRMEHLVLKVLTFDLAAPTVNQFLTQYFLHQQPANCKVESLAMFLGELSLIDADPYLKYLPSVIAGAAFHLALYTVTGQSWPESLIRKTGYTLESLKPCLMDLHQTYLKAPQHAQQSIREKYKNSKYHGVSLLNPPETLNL

[7] = target: Calcium/calmodulin-dependent protein kinase type 1B (Homo sapiens) (UniProt Q6P2M8); assay: Inhibition of human CAMK1b assessed as enzyme activity at 1 uM using KKALRRQETVDAL as substrate preincubated for 20 mins followed by [gamma-33P]-ATP addition and measured after 120 mins by radiometric Hot-SpotSM Kinase assay relative to control
Chain of Calcium/calmodulin-dependent protein kinase type 1B (Homo sapiens) (Q6P2M8 whole entry): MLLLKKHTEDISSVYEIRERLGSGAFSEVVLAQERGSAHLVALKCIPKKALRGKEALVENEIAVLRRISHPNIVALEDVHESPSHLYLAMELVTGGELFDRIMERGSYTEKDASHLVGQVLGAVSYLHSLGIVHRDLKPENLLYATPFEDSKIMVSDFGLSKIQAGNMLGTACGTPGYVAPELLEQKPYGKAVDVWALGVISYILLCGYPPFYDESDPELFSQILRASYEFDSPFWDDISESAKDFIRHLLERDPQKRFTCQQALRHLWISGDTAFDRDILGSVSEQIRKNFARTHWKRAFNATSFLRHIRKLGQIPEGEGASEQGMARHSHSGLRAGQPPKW

[8] = target: Calcium/calmodulin-dependent protein kinase type II subunit alpha (Homo sapiens) (UniProt Q9UQM7); assay: Inhibition of human CAMK2a assessed as enzyme activity at 1 uM using KKALRRQETVDAL as substrate preincubated for 20 mins followed by [gamma-33P]-ATP addition and measured after 120 mins by radiometric Hot-SpotSM Kinase assay relative to control
Chain of Calcium/calmodulin-dependent protein kinase type II subunit alpha (Homo sapiens) (Q9UQM7 whole entry): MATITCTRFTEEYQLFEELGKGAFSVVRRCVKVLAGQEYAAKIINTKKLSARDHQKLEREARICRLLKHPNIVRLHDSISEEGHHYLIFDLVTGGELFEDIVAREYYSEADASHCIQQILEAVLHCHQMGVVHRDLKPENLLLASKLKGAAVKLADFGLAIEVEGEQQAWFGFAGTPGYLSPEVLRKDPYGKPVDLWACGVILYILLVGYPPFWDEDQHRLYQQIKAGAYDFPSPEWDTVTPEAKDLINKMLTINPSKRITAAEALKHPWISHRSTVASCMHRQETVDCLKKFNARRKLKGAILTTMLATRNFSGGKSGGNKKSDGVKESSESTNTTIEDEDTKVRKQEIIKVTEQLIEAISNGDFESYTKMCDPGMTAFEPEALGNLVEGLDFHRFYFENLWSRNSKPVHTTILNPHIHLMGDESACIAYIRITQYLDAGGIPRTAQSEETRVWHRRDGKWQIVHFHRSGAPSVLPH

C[C@H](Nc1ncnc2nc[nH]c12)c1cc2cccc(Cl)c2c(=O)n1-c1ccccc1
Activity [1]: 98.1% | Activity [2]: 92.9% | Activity [3]: 102% | Activity [4]: 97.2% | Activity [5]: 87% | Activity [6]: 95.7% | Activity [7]: 102% | Activity [8]: 95.4%

CC[C@H](Nc1ncnc2[nH]cnc12)c1nc2cccc(F)c2c(=O)n1-c1ccccc1
Activity [1]: 100% | Activity [2]: 90.6% | Activity [3]: 105% | Activity [4]: 96.5% | Activity [5]: 93.5% | Activity [6]: 95.5% | Activity [7]: 103% | Activity [8]: 101%

CC(C)Oc1ccc(-c2nn([C@@H](C)c3oc4ccc(F)cc4c(=O)c3-c3cccc(F)c3)c3ncnc(N)c23)cc1F [UMBRALISIB]
Activity [1]: 101% | Activity [2]: 103% | Activity [3]: 102% | Activity [4]: 100% | Activity [5]: 105% | Activity [6]: 96.9% | Activity [7]: 100% | Activity [8]: 100%
